For three compounds, IC50 and Activity results are on record in ChEMBL document CHEMBL1149037, “Vanicosides A and B, protein kinase C inhibitors from Polygonum pensylvanicum” (J Nat Prod, 1994).

Assay [1] is described as follows: Inhibition of PKC.
In the next assay the test system is MCF. Briefly: Cytotoxicity against human MCF cells. In kind it is functional, cell-based.

Molecules are shown by their SMILES. Converted amounts (≈) assume the structure as drawn. The source made the active and inactive calls. The rule behind the calls is not given here. Where only a bound is given, the exact number is not on record here.

In the case of `COc1cc(/C=C/C(=O)OC[C@H]2O[C@@H](O[C@]3(COC(=O)/C=C/c4ccc(OC(C)=O)cc4)O[C@H](COC(=O)/C=C/c4ccc(OC(C)=O)cc4)[C@@H](OC(C)=O)[C@@H]3OC(=O)/C=C/c3ccc(OC(C)=O)cc3)[C@H](OC(C)=O)[C@@H](OC(C)=O)[C@@H]2OC(C)=O)ccc1OC(C)=O`, in assay [1], the IC50 is greater than 50 µg/mL. Turning to `COc1cc(/C=C/C(=O)OC[C@H]2O[C@@H](O[C@]3(COC(=O)/C=C/c4ccc(O)cc4)O[C@H](COC(=O)/C=C/c4ccc(O)cc4)[C@@H](O)[C@@H]3OC(=O)/C=C/c3ccc(O)cc3)[C@H](OC(C)=O)[C@@H](O)[C@@H]2O)ccc1O` [VANICOSIDE A], the result in the assay on MCF was Active. The IC50 in assay [1] worked out at 44 µg/mL (≈ 44 µM).

In the case of `COc1cc(/C=C/C(=O)OC[C@H]2O[C@H](O[C@]3(COC(=O)/C=C/c4ccc(O)cc4)O[C@H](COC(=O)/C=C/c4ccc(O)cc4)[C@@H](O)[C@@H]3OC(=O)/C=C/c3ccc(O)cc3)[C@H](O)[C@@H](O)[C@@H]2O)ccc1O` [VANICOSIDE B], the outcome with MCF was Active. Further, in assay [1], the IC50 is 31 µg/mL (≈ 32.4 µM).

As a reminder, the IC50 is the midpoint of a concentration-inhibition curve. Higher therefore signals weaker potency in that assay.
